Test results: US12043599B2, “Herbicidal compounds” (SYNGENTA PARTICIPATIONS AG, priority 2018, dated 2024)

Columns and labels:
Assay type in all cases: in vivo
Conditions in all cases: 250 g/h, evaluated after 13 days
Setaria faberi (SETFA) [1] = assay: Post-emergence herbicidal glasshouse test, percentage damage
How it was run: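 Percentage damage was scored 13 days after treatment on a five-point scale (1=0-19% to 5=80-100%). Treatments were post-emergence sprays on 8-day-old wheat, barley and SETFA plants in a glasshouse (24/16 °C day/night, 14 h light, 65% humidity), using acetone/water 50:50 with 0.5% Tween 20 at the stated rates. Wheat additionally received cloquintocet-mexyl safener at 50 g/ha.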

[2] = test system: Alopecurus myosuroides (ALOMY); assay: as above
How it was run: (§1)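 Each compound is sprayed at 250 g/h on pots either 1 or 8 days after sowing (pre- and post-emergence respectively). Growth under controlled glasshouse conditions, 24/16 °C day/night and 65% humidity, continues for 13 days before damage is rated on a five-point scale.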

Avena fatua (AVEFA) [3] = assay: as above
How it was run: as §1

[4] = test system: Echinochloa crus-galli (ECHCG); assay: as above
How it was run: as §1

Lolium perenne (LOLPE) [5] = assay: as above
How it was run: as §1

[6] = test system: Alopecurus myosuroides (ALOMY); assay: Pre-emergence herbicidal glasshouse test, percentage damage
How it was run: as §1

Setaria faberi (SETFA) [7] = assay: as above
How it was run: as §1

Avena fatua (AVEFA) [8] = assay: as above
How it was run: as §1

[9] = test system: Echinochloa crus-galli (ECHCG); assay: as above
How it was run: as §1

Lolium perenne (LOLPE) [10] = assay: as above
How it was run: as §1

Compound | SETFA POST percentage damage (five point scale) (Setaria faberi (SETFA) [1]) | ALOMY POST percentage damage (five point scale) [2] | AVEFA POST percentage damage (five point scale) (Avena fatua (AVEFA) [3]) | ECHCG POST percentage damage (five point scale) [4] | LOLPE POST percentage damage (five point scale) (Lolium perenne (LOLPE) [5]) | ALOMY PRE percentage damage (five point scale) [6] | SETFA PRE percentage damage (five point scale) (Setaria faberi (SETFA) [7]) | AVEFA PRE percentage damage (five point scale) (Avena fatua (AVEFA) [8]) | ECHCG PRE percentage damage (five point scale) [9] | LOLPE PRE percentage damage (five point scale) (Lolium perenne (LOLPE) [10])
CC#Cc1cc(C)c(C2C(=O)CC3(CCN(C(=O)NC(=O)c4ccc(C#N)cn4)CC3)CC2=O)c(C)c1 [Compound A160] | 5 (5=80-100%) | 4 (4=60-79%) | 5 (5=80-100%) | 4 (4=60-79%) | 5 (5=80-100%) | 2 (2=20-39%) | 5 (5=80-100%) | 4 (4=60-79%) | 4 (4=60-79%) | 3 (3=40-59%)
CC#Cc1cc(C)c(C2C(=O)CC3(CCN(C(=O)c4ccccc4F)CC3)CC2=O)c(C)c1 [Compound A84] | 5 (5=80-100%) | 5 (5=80-100%) | 5 (5=80-100%) | 5 (5=80-100%) | 5 (5=80-100%) | 5 (5=80-100%) | 5 (5=80-100%) | 4 (4=60-79%) | 5 (5=80-100%) | 5 (5=80-100%)
CC#Cc1cc(C)c(C2=C(OC(=O)c3ccncc3)CC3(CCN(C(=O)c4ccncc4)CC3)CC2=O)c(C)c1 [Compound P4] | 5 (5=80-100%) | 5 (5=80-100%) | 5 (5=80-100%) | 5 (5=80-100%) | 5 (5=80-100%) | 5 (5=80-100%) | 5 (5=80-100%) | 4 (4=60-79%) | 5 (5=80-100%) | 5 (5=80-100%)
CC#Cc1cc(C)c(C2C(=O)CC3(CCN(C(=O)COC(C)C)CC3)CC2=O)c(C)c1 [Compound A171] | 5 (5=80-100%) | 5 (5=80-100%) | 5 (5=80-100%) | 5 (5=80-100%) | 5 (5=80-100%) | 5 (5=80-100%) | 5 (5=80-100%) | 5 (5=80-100%) | 5 (5=80-100%) | 5 (5=80-100%)
CC#Cc1cc(C)c(C2C(=O)CC3(CCN(S(=O)(=O)CC)CC3)CC2=O)c(OC)c1 [Compound A72] | 5 (5=80-100%) | 5 (5=80-100%) | 5 (5=80-100%) | 5 (5=80-100%) | 5 (5=80-100%) | 5 (5=80-100%) | 5 (5=80-100%) | 5 (5=80-100%) | 5 (5=80-100%) | 5 (5=80-100%)
CC#Cc1cc(C)c(C2C(=O)CC3(CCN(C(=O)OC(C)(C)C)CC3)CC2=O)c(C)c1 [Compound A12, tert-butyl 9-(2,6-dimethyl-4-prop-1-ynyl-phenyl)-8,10-dioxo-3-azaspiro[5.5]undecane-3-carboxylate] | 5 (5=80-100%) | 5 (5=80-100%) | 5 (5=80-100%) | 5 (5=80-100%) | 5 (5=80-100%) | 4 (4=60-79%) | 5 (5=80-100%) | 4 (4=60-79%) | 5 (5=80-100%) | 5 (5=80-100%)
CC#Cc1cc(C)c(C2C(=O)CC3(CCN(C(=O)c4cccc(C#N)n4)CC3)CC2=O)c(C)c1 [Compound A178] | 5 (5=80-100%) | 5 (5=80-100%) | 5 (5=80-100%) | 5 (5=80-100%) | 5 (5=80-100%) | 4 (4=60-79%) | 5 (5=80-100%) | 5 (5=80-100%) | 4 (4=60-79%) | 5 (5=80-100%)
CC#Cc1cc(C)c(C2C(=O)CC3(CCN(S(=O)(=O)C4COC4)CC3)CC2=O)c(C)c1 [Compound A83] | 5 (5=80-100%) | 5 (5=80-100%) | 5 (5=80-100%) | 5 (5=80-100%) | 5 (5=80-100%) | 5 (5=80-100%) | 5 (5=80-100%) | 4 (4=60-79%) | 5 (5=80-100%) | 5 (5=80-100%)
CC#Cc1cc(C)c(C2C(=O)CC3(CCN(C(=O)c4cncc(OC)n4)CC3)CC2=O)c(C)c1 [Compound A180] | 5 (5=80-100%) | 5 (5=80-100%) | 5 (5=80-100%) | 5 (5=80-100%) | 5 (5=80-100%) | 5 (5=80-100%) | 5 (5=80-100%) | 5 (5=80-100%) | 5 (5=80-100%) | 5 (5=80-100%)
CC#Cc1cc(C)c(C2=C(OC(=O)OC)CC3(CCN(C(=O)NC(C)=O)CC3)CC2=O)c(C)c1 [Compound P53] | 5 (5=80-100%) | 5 (5=80-100%) | 5 (5=80-100%) | 5 (5=80-100%) | 5 (5=80-100%) | 4 (4=60-79%) | 5 (5=80-100%) | 5 (5=80-100%) | 5 (5=80-100%) | 4 (4=60-79%)
CC#Cc1cc(C)c(C2C(=O)CC3(CCN(C(=O)Cc4ccncc4)CC3)CC2=O)c(C)c1 [Compound A100] | 5 (5=80-100%) | 4 (4=60-79%) | 5 (5=80-100%) | 5 (5=80-100%) | 5 (5=80-100%) | 3 (3=40-59%) | 5 (5=80-100%) | 3 (3=40-59%) | 5 (5=80-100%) | 5 (5=80-100%)
